Results published in ChEMBL document CHEMBL2069234, “Aristoxazole analogues. Conversion of 8-nitro-1-naphthoic acid to 2-methylnaphtho[1,2-d]oxazole-9-carboxylic acid: comments on the chemical mechanism of formation of DNA adducts by the aristolochic acids” (J Nat Prod, 2012).

Columns and labels:
[1] = test system: Salmonella typhimurium; assay: Mutagenicity in Salmonella typhimurium TA100; type: toxicity, organism-based; conditions: salmonella enterica subsp. enterica serovar typhimurium
[2] = Drug conversion assessed as formation of oxazole derivatives in presence of Zn/HOAc; type: physicochemical

Question: Which Activity [1] does the source give for `COc1cccc2c1cc([N+](=O)[O-])c1c(C(=O)O)cc3c(c12)OCO3` [ARISTOLOCHIC ACID] here?
Answer: Toxic

Question: And the Drug metabolism [2]?
Answer: Active
